In assay [1] the test system is GSK-3α/β. Put plainly: GSK-3 activation in brain homogenates of luteolin-treated Tg2576 mice. Type of assay: in vivo. To be noted: 20 mg/kg i.p. daily for 30 days. As to the method: Sixteen (8♂/8♀) Tg2576 mice (Taconic, Germantown, N.Y.) were used; 8 mice received luteolin, and the other 8 received phosphate buffered saline (PBS). Beginning at 8 months of age, Tg2576 mice were intraperitoneally injected with luteolin (20 mg/kg) or PBS daily for 30 days based on previously described methods. These mice were then sacrificed at 9 months of age for analyses of Aβ levels and Aβ load in the brain according to previously described methods. Animals were housed and maintained in the College of Medicine Animal Facility at the University of South Florida (USF), and all experiments were in compliance with protocols approved by the USF Institutional Animal Care and Use Committee.
Cultured cells or mouse brain were lysed in ice-cold lysis buffer described above, and an aliquot corresponding to 50 μg of total protein was electrophoretically separated using 12% Tris-HCl or 16.5% Tris-tricine gels. […] Densitometric analysis was done as previously described using a FluorS Multiimager with Quantity One™ software (39). […] Antibodies used for Western blot included the APP-carboxyl-terminal antibody (1:50)), amino-terminal APP antibody (clone 22C11), or 6E10 (1:1,000), or actin antibody (1:1,500; as an internal reference control). γ-secretase activity was quantified in cell lysates using available kits based on secretase-specific peptides conjugated to fluorogenic reporter molecules. […]

For assay [2], the target named is T1, γ-secretase (Mus musculus, UniProt P49769).
T1 construct: endogenous in cells; host or cells: SweAPP N2a cells (lysates of treated cells)
Put plainly: fluorometric assay for γ-secretase cleavage activity in SweAPP N2a cell lysates. To be noted: relative to untreated control. Type of assay: cell-based, murine. As to the method:
(§1) Cultured cells or mouse brain were lysed in ice-cold lysis buffer described above, and an aliquot corresponding to 50 μg of total protein was electrophoretically separated using 12% Tris-HCl or 16.5% Tris-tricine gels. Electrophoresed proteins were then transferred to PVDF membranes, washed in dH2O, and blocked for 1 hr at ambient temperature in Tris-buffered saline (TBS; Bio-Rad) containing 5% (w/v) non-fat dry milk. After blocking, membranes were hybridized for 1 hr at ambient temperature with various primary antibodies. Membranes were then washed 3× for 5 min each in dH2O and incubated for 1 hr at ambient temperature with the appropriate HRP-conjugated secondary antibody (1:1,000). Antibodies were obtained against the amino-terminus and carboxyl-terminus of PS1 (Chemicon, Temecula, Calif.), amino-terminus and carboxyl-terminus of APP (22C11), actin (Roche, Basel, Switzerland), Aβ (6E10, 48G) (Signet Laboratories, Dedham, Mass.), phosphor-GSK3α (ser^21, clone BK202) (Upstate, Lake Placid, N.Y.), phospho-GSK3α/β (pTyr^279/216) (Sigma), phospho-GSK-3β (Ser^9) (Sigma) and total GSK-3α/β (Sigma). […] Densitometric analysis was done as previously described using a FluorS Multiimager with Quantity One™ software (39). […] Antibodies used for Western blot included the APP-carboxyl-terminal antibody (1:50)), amino-terminal APP antibody (clone 22C11), or 6E10 (1:1,000), or actin antibody (1:1,500; as an internal reference control). γ-secretase activity was quantified in cell lysates using available kits based on secretase-specific peptides conjugated to fluorogenic reporter molecules.
Due to the implications on γ-secretase activity, luteolin's effect on SweAPP N2a cells was analyzed using a fluorometric assay for γ-cleavage.
Cultured cells or mouse brain were lysed in ice-cold lysis buffer described above, and an aliquot corresponding to 50 μg of total protein was electrophoretically separated using 12% Tris-HCl or 16.5% Tris-tricine gels. […] Densitometric analysis was done as previously described using a FluorS Multiimager with Quantity One™ software. […]

For assay [3], the target named is GSK-3α/β (Mus musculus, UniProt Q2NL51). Nature of the assay: Western blot of phosphorylated GSK-3α/β forms in Tg2576-derived neuronal cells. Type of assay: cell-based, mice. Also noted: endogenous in cells; host or cells: primary neuronal cells derived from Tg2576 mice. To be noted: 20 μM. As to the method: as §1, with “(1:1,000).” for “(1:1,000). Antibodies were obtained against the amino-terminus and carboxyl-terminus of PS1 (Chemicon, Temecula, Calif.), amino-terminus and carboxyl-terminus of APP (22C11), actin (Roche, Basel, Switzerland), Aβ (6E10, 48G) (Signet Laboratories, Dedham, Mass.), phosphor-GSK3α (ser^21, clone BK202) (Upstate, Lake Placid, N.Y.), phospho-GSK3α/β (pTyr^279/216) (Sigma), phospho-GSK-3β (Ser^9) (Sigma) and total GSK-3α/β (Sigma).”, “molecules. […]” for “molecules.”
GSK-3α/β (Mus musculus, UniProt Q2NL51), sequence (Q2NL51 2-490): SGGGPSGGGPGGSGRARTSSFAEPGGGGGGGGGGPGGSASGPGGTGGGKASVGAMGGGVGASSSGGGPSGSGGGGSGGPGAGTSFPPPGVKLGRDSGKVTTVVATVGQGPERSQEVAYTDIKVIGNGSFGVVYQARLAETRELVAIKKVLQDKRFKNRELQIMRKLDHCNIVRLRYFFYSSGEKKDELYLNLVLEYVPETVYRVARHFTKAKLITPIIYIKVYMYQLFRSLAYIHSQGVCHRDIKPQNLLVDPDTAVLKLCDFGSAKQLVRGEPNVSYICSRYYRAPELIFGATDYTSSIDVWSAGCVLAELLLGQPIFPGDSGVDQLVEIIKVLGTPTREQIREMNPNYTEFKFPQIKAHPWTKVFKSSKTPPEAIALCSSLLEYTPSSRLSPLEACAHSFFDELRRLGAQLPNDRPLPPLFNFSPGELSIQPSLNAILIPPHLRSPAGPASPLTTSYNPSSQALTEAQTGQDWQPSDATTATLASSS
For orientation: In western blotting, separated proteins are transferred to a membrane and probed.

The test system of assay [4] is GSK-3α/β. Nature of the assay: Western blot of phosphorylated GSK-3α/β forms in SweAPP N2a cells. Type of assay: cell-based, murine. To be noted: 20 μM. As to the method:
Cultured cells or mouse brain were lysed in ice-cold lysis buffer described above, and an aliquot corresponding to 50 μg of total protein was electrophoretically separated using 12% Tris-HCl or 16.5% Tris-tricine gels. Electrophoresed proteins were then transferred to PVDF membranes, washed in dH2O, and blocked for 1 hr at ambient temperature in Tris-buffered saline (TBS; Bio-Rad) containing 5% (w/v) non-fat dry milk. After blocking, membranes were hybridized for 1 hr at ambient temperature with various primary antibodies. Membranes were then washed 3× for 5 min each in dH2O and incubated for 1 hr at ambient temperature with the appropriate HRP-conjugated secondary antibody (1:1,000). Antibodies were obtained against the amino-terminus and carboxyl-terminus of PS1 (Chemicon, Temecula, Calif.), amino-terminus and carboxyl-terminus of APP (22C11), actin (Roche, Basel, Switzerland), Aβ (6E10, 48G) (Signet Laboratories, Dedham, Mass.), phosphor-GSK3α (ser^21, clone BK202) (Upstate, Lake Placid, N.Y.), phospho-GSK3α/β (pTyr^279/216) (Sigma), phospho-GSK-3β (Ser^9) (Sigma) and total GSK-3α/β (Sigma). All antibodies were diluted in TBS containing 5% (w/v) of non-fat dry milk. Blots were developed using the luminol reagent (Pierce Biotechnology). Densitometric analysis was done as previously described using a FluorS Multiimager with Quantity One™ software (39). […] Antibodies used for Western blot included the APP-carboxyl-terminal antibody (1:50)), amino-terminal APP antibody (clone 22C11), or 6E10 (1:1,000), or actin antibody (1:1,500; as an internal reference control). γ-secretase activity was quantified in cell lysates using available kits based on secretase-specific peptides conjugated to fluorogenic reporter molecules.
The effect luteolin had on a variety of proteins related to and/or required for proper functioning of the γ-secretase complex was evaluated to establish the mechanism whereby luteolin modulates γ-secretase activity and subsequent Aβ generation. […]

For assay [5], the system named is primary neuronal cells derived from Tg2576 mice. Nature of the assay: APP proteolysis (Aβ ELISA, IP, APP CTF Western blot) in Tg2576 mouse-derived primary neuronal cells. To be noted: 12 hrs. Type of assay: cell-based. As to the method:
as §1, with “(Sigma). All antibodies were diluted in TBS containing 5% (w/v) of non-fat dry milk.” for “(Sigma).”
SweAPP N2a cells and primary neuronal cells derived from Tg2576 mice were treated with varying doses of luteolin to examine luteolin's effect on APP proteolysis. Cellular extracts were collected and analyzed using immunoprecipitation (IP), Western blot, and ELISA. […] SweAPP N2a and primary Tg2576-derived neuronal cells CTF profiles were analyzed following luteolin treatment to determine at which level luteolin impacts amyloid processing.

Molecules are shown by their SMILES.

For `O=c1cc(-c2ccc(O)c(O)c2)oc2cc(O)cc(O)c12` [luteolin], the “GSK-3α/β active isoforms (ratio of phosphorylated to holo GSK-3)” value in assay [1] is “reduced when compared to control”. Moreover, the γ-secretase cleavage activity entry in assay [2] is “lowered γ-secretase cleavage activity in both a dose and time dependent fashion”. Besides, the “levels of serine 21-phosphorylated, inactive GSK-3α isoforms” value in assay [3] is “increased the levels”. Besides, the “overall expression of GSK3-α or β” value in assay [4] (Western blot) is listed as “no significant changes”. In addition, the “selectivity of GSK-3α over GSK-3β inactivation” value in assay [4] (time course) is reported as “selectively inactivates GSK-3α isoforms over β isoforms”. Besides, the “accumulation of both α and β CTFs (increase over control)” value in assay [5] (dose dependent, Western blot densitometry) is 2-3 fold. Further, the “Aβ1-40, 42 peptide generation abrogated” value in assay [5] (luteolin 20 μM) is given as greater than 70%; in assay [5] (luteolin 40 μM) it was greater than 85%.

The values above are taken from patent US8802638B1, “Flavonoid treatment of glycogen synthase kinase-based disease” (University of South Florida, priority 2007, dated 2014).
